Measured values: EP4703364A1, “QUINOLONE ANALOG AND USE THEREOF” (Horizon Omics Biotech Limited, priority 2023, dated 2024)

Experiments:
[1] = Toxicity assay in mice, repeated dosing at 55 mg/kg, body weight; type: in vivo; settings: 55 mg/kg PO once every 3 days, 4 repeated administrations, female Balb/c mice
Procedure: Test compounds were administered to mice via the oral (PO) route. The test compounds were dissolved at room temperature. The mice (Balb/c) used in the study were all female, and aged 6-8 weeks. Before administration, the mice had free access to food and water.
Vehicle control: 50 mM NaH2PO4, pH 4.0. CX-5461 and the H series compounds were administered once every 3 days at a dose of 55 mg/kg, with four doses administered in total.

DLD1 BRCA2^-/- = experiment: Cell activity assay (CellTiterGlo), BRCA2 gene knockout DLD1 cancer cells; type: cell-based; settings: Homo sapiens, DLD-1, 144 h, read-out: IC50(nM) DLD1 BRCA2^-/-
Procedure: (§1) • (1) Compound Treatment • a) Preparation of Stock Solutions of Compounds Test compounds were dissolved in DMSO at a concentration of 10 mM or 5 mM, and Olaparib was dissolved in DMSO at a concentration of 10 mM. • b) Compound Storage All compounds dissolved in DMSO were stored in a desiccator at room temperature for short-term storage and transferred to a -20°C refrigerator for long-term storage. • c) Preparation of Working Concentrations of Compounds
(§2) Test compounds were serially diluted in DMSO at a 3-fold gradient to prepare 10 concentration gradients, starting from 10 µM.
(§3) Olaparib was serially diluted in DMSO at a 3-fold gradient to prepare 10 concentration gradients, starting from 10 µM.
(§4) The 384-well plate loaded with the compounds was centrifuged at 1000 rpm for 1 minute.
(§5) • a) Cells were added to the culture medium and incubated in a cell culture incubator at 37°C with 5% CO2. • b) 40 µL of BRCA1- or BRCA2-deficient cells were added to a 384-well plate and incubated overnight at 37°C with 5% CO2. • c) The test compounds were prepared at different concentration gradients on the master plate, and 80 nL of the test compounds and Olaparib were taken from the master plate and added to the 384-well plate containing cells, and incubated at 37°C with 5% CO2 for 6 days. • d) CellTiterGlo (30 µL per well) was added to the 384-well plate, and after incubation at room temperature in the dark for 30 minutes, measurement was performed using an Envision plate reader.
(§6) • a) GraphPad Prism software was used to calculate the ICso and plot the activity curves as a function of concentration. • b) The inhibition of cell activity by the compounds was calculated using the following formula: % Inhibition = [1−(Cmpd−Blank)/(DMSO−Blank)]*100 [formula]

hERG = hERG (Homo sapiens, UniProt Q12809); experiment: hERG cardiotoxicity assay (patch clamp, hERG stably expressed HEK 293 cell line); type: cell-based; settings: hERG current, HEK 293 cells, 5 doses
Chain of hERG (Q12809 whole entry): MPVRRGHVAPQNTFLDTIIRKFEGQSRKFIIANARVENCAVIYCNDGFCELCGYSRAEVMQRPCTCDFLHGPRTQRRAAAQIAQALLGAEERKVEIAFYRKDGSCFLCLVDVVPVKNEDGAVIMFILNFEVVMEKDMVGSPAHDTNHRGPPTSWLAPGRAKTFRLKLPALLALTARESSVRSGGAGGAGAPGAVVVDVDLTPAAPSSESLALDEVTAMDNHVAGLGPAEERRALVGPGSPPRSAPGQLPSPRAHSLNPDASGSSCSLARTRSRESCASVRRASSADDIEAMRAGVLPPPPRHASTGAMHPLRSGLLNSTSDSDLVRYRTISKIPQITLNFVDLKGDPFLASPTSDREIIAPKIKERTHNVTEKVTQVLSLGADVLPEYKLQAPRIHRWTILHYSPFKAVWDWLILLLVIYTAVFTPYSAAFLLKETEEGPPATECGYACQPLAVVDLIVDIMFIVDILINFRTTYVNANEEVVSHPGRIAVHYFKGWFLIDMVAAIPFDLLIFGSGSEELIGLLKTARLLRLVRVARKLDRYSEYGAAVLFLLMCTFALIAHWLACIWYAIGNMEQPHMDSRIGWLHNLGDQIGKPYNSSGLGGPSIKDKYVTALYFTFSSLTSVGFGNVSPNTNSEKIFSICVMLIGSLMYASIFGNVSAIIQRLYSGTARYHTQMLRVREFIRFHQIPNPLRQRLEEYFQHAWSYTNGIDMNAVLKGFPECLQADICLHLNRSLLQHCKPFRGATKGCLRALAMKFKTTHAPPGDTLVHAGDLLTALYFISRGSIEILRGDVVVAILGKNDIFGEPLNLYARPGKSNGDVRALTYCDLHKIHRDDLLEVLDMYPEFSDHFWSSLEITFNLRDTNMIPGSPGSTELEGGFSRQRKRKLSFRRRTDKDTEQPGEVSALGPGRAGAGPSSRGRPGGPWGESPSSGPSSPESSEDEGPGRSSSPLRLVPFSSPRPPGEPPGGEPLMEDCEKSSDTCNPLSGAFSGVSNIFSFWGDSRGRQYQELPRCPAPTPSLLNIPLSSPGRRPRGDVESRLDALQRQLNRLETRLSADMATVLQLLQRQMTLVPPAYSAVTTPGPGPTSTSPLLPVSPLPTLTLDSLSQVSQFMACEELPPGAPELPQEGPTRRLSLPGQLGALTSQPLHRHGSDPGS
Procedure: Assay Method: 1) The hERG stably expressed HEK 293 cell line (Cat# K1236) was purchased from Invitrogen. Cells were cultured in a medium consisting of 85% DMEM, 10% FBS, 0.1 mM NEAA, 25 mM HEPES, 100 U/mL penicillin-streptomycin, 5 µg/mL Blasticidin, and 400 µg/mL Geneticin. Cells were passaged approximately three times a week using TrypLE™ Express and maintained at ~40% to ~80% confluency. Before assay, cells were placed on coverslips with 5×10^5 cells per 6-cm cell culture dish and induced with 1 µg/mL doxycycline for 48 hours. 2) The coverslip was removed from the cell culture dish and placed on the microscope stage. A suitable cell was located using a 10× objective. The tip of the electrode was located under the microscope using the 10× objective, and the focus was adjusted to the plane of the cell. Once the tip was in focus, the coarse control of the manipulator was used to advance the electrode downward toward the cell while moving the objective to keep the tip in focus. When directly above the cell, the objective was switched to 40× objective, and the fine control of the manipulator was used to approach the cell surface in small steps. 3) A blank control was first performed to establish a baseline. […] In the presence of the test compounds, the hERG current was recorded for approximately 5 minutes to reach a steady state, followed by capturing 5 scans. For dose-response testing, 5 doses of the test compounds were cumulatively applied to the cells from low to high concentrations. The positive control, dofetilide at a concentration of 150 nM, was applied to each cell, and the hERG current was measured in the test compounds at the highest concentration as a negative control to normalize the percentage of inhibition. To ensure good performance of the cultured cells and operations, cells from the same batch were also tested with 5 doses of dofetilide. Table 5. hERG Toxicity Assay Results

[2] = In-vivo pharmacokinetic study in mice (bioavailability testing); settings: mouse, plasma; oral (PO) and intravenous (IV) routes, female Balb/c nude mice
Procedure: Test compounds were administered to mice via oral (PO) and intravenous (IV) routes. The test compounds were dissolved at room temperature. The mice used in the study were Balb/c nude mice, all female, aged 6-8 weeks, with a body weight of 20-30 grams. Before administration, the mice had free access to food and water. Blood samples (approximately 0.03 mL per sample) were collected from the vein at appropriate time points. The samples were placed in tubes containing an anticoagulant and stored on ice until centrifugation. Blood samples were collected at 0.083, 0.25, 0.5, 1, 2, 4, 8, and 24 hours after intravenous administration, and at 0.25, 0.5, 1, 2, 4, 8, and 24 hours after oral administration. The blood samples were centrifuged at approximately 4000 rpm at 2-8 °C for 5 minutes. Plasma samples were then collected and stored frozen at approximately -80 °C until analysis. The LC-MS/MS system was used for bioanalytical work. Table 4. Bioavailability Testing

[3] = system: human herpesvirus HCMV-AD169; experiment: Antiviral cell-protective activity, GFP-labeled HCMV-AD169 in MRC5 cells; type: cell-based; settings: for EC50: Human betaherpesvirus 5, 168 h, HCMV-AD169 GFP fluorescence, 7 days, read-out: Virus inhibition EC50; for SI (CC50/EC50): therapeutic index, HCMV-AD169
Procedure: MRC5 cells were seeded in microplates at a specific density and cultured overnight in an incubator at 37 °C with 5% CO2. Serially diluted compounds and GFP-labeled human herpesvirus HCMV-AD169 were added to the microplates. A cell control group (cells without compound treatment or viral infection) and a virus control group (cells infected with the virus but without compound treatment) were set up. The test compounds and control compounds were tested at 8 concentrations, with 3-fold serial dilutions and triplicate wells for each concentration. Meanwhile, the cytotoxicity of the test compounds and control compounds on cells was determined. The cells were cultured in an incubator at 37 °C with 5% CO2 for 7 days. Acumen Cellista was used to detect the GFP fluorescence intensity inside the cells in each well. Cell viability detection reagents CCK-8 or Cell Titer Glo were used to measure cell viability, and the original data were used for calculating the cytotoxicity of the test compounds. GraphPad Prism software was applied to analyze the dose-response curves of the test compounds, calculate the virus inhibition EC50 and cytotoxicity CC50 values, and further calculate the therapeutic index (SI), using the formula SI = CC50/EC50, which was used to evaluate the therapeutic potential of the drug; a higher SI value indicates stronger efficacy of the drug against viruses.

MDA-MB-436 cancer cells = experiment: Inhibition of human-derived cancer in mouse model (MDA-MB-436 subcutaneous tumors); type: in vivo, NOD SCID mice; settings: MDA-MB-436 model, oral
Procedure: The anti-cancer efficacy of the compounds of the present application was evaluated in NOD SCID mice. Female mice aged 6-8 weeks were subcutaneously inoculated with MDA-MB-436 cancer cells to form tumors. When the tumors reached a size of 100-150 mm^3, the mice were randomly divided into groups, with 6 mice in each group. The administration route was oral administration. Olaparib was administered once a day at a dose of 100 mg/kg for a total of 28 days. The vehicle control group and Compound H-31 were administered once every 3 days at a dose of 25 mg/kg.

UWB1.289 Cells = experiment: Cell activity assay (CellTiterGlo), BRCA1 gene-deficient ovarian cancer cells UWB1.289; type: cell-based; settings: UWB1289, 144 h, BRCA1 gene-deficient ovarian cancer cells UWB1.289, 6 days incubation
Procedure: as §1, §2, §3, §4, §5, §6

[4] = Toxicity assay in mice, repeated dosing at 50 mg/kg, body weight; type: in vivo; settings: 50 mg/kg PO once every 3 days; for overall condition / clinical symptoms: 21 days; for overall condition / clinical symptoms / effect on mouse body weight: female mice; for effect on mouse body weight: after 21 days of repeated administration
Procedure: Test compounds were administered to mice via the oral (PO) route. The test compounds were dissolved at room temperature. The mice used in the study were all female, and aged 6-8 weeks. Before administration, the mice had free access to food and water. Vehicle control: 50 mM NaH2PO4, pH 4.0, administered once every 3 days. CX-5461 and Compound H-31 were administered once every 3 days at a dose of 50 mg/kg. If the body weight of the mice decreased by more than 15%, administration was suspended until the body weight recovered, after which administration was resumed.

| SMILES | IC50 (DLD1 BRCA2^-/-) [nM] | bioavailability [2] [%] | other results |
| --- | --- | --- | --- |
| CN1CCCN(c2ccc3c(=O)c(C(=O)NCc4ncc(C(F)(F)F)cn4)c4sc5ccccc5n4c3n2)CC1 [Compound H-4] | 36 |  | deaths [1]: no deaths observed |
| CNC(=O)c1cnc(CNC(=O)c2c(=O)c3ccc(N4CCCN(C)CC4)nc3n3c2sc2ccccc23)nc1 [Compound H-13] |  |  | IC50 (hERG): > 30000 nM |
| CSc1cnc(CNC(=O)c2c(=O)c3ccc(N4CCCN(C)CC4)nc3n3c2sc2ccccc23)nc1 [Compound H-18] |  |  | IC50 (hERG): 10700 nM |
| CN1CCCN(c2ccc3c(=O)c(C(=O)NCc4ncc(Cl)cn4)c4sc5ccccc5n4c3n2)CC1 [Compound H-2] | 33.8 | 47.2 |  |
| [2H]C1([2H])CN(c2ccc3c(=O)c(C(=O)NCc4ncc(F)cn4)c4sc5ccccc5n4c3n2)C([2H])([2H])C([2H])([2H])N(C)C1([2H])[2H] [Compound H-6] | 23.8 |  |  |
| COc1ccnc(CNC(=O)c2c(=O)c3ccc(N4CCCN(C)CC4)nc3n3c2sc2ccccc23)n1 [Compound H-17] |  | 74.6 | deaths [1]: no deaths observed |
| CN1CCCN(c2ccc3c(=O)c(C(=O)NCc4nccc(C#N)n4)c4sc5ccccc5n4c3n2)CC1 [Compound H-12] | 13.7 | 49.1 |  |
| [2H]C([2H])([2H])N1CCCN(c2ccc3c(=O)c(C(=O)NCc4ncccn4)c4sc5ccccc5n4c3n2)CC1 [Compound H-31] | 12.8 | 43.1 | EC50 [3]: 30 nM; SI (CC50/EC50) [3]: >101.7; cancer inhibition rate (MDA-MB-436 cancer cells; 25 mg/kg once every 3 days): 82.2%; IC50 (UWB1.289 Cells): 28.8 nM; overall condition / clinical symptoms [4]: no abnormal clinical symptoms were observed; effect on mouse body weight [4]: weight trends similar to the control group |
| COc1cnc(CNC(=O)c2c(=O)c3ccc(N4CCCN(C)CC4)nc3n3c2sc2ccccc23)nc1 [Compound H-16] | 27.5 |  |  |
| CN1CCCN(c2ccc3c(=O)c(C(=O)NCc4ncc(C5CC5)cn4)c4sc5ccccc5n4c3n2)CC1 [Compound H-27] |  | 59.2 |  |
| [2H]C([2H])([2H])N1C([2H])([2H])C([2H])([2H])CN(c2ccc3c(=O)c(C(=O)NCc4ncccn4)c4sc5ccccc5n4c3n2)C([2H])([2H])C1([2H])[2H] [Compound H-7] | 16.2 |  |  |
| [2H]C([2H])([2H])N1C([2H])([2H])C([2H])([2H])CN(c2ccc3c(=O)c(C(=O)NCc4ncc(F)cn4)c4sc5ccccc5n4c3n2)C([2H])([2H])C1([2H])[2H] [Compound H-8] | 15.9 |  |  |
| CN1CCCN(c2ccc3c(=O)c(C(=O)NCc4nccc(C5CC5)n4)c4sc5ccccc5n4c3n2)CC1 [Compound H-28] |  | 41.6 |  |
| O=C(c1cc(Cc2n[nH]c(=O)c3ccccc23)ccc1F)N1CCN(C(=O)C2CC2)CC1 [Olaparib, reference compound] | 490 |  | cancer inhibition rate (MDA-MB-436 cancer cells; 100 mg/kg once a day for 28 days): 63.4%; IC50 (UWB1.289 Cells): 716 nM |
| CN1CCCN(c2ccc3c(=O)c(C(=O)NCc4ncc(F)cn4)c4sc5ccccc5n4c3n2)CC1 [Compound H-1] | 37.7 | 60.7 |  |
| Cc1cnc(CNC(=O)c2c(=O)c3ccc(N4CCCN(C)CC4)nc3n3c2sc2ccccc23)cn1 [CX-5461] | 43.9 | 33.8 | IC50 (UWB1.289 Cells): 91.6 nM; overall condition / clinical symptoms [4]: poor overall condition, sluggish movement, and pallor in the tails and toes due to blood loss; effect on mouse body weight [4]: significantly reduced the body weight of the mice; average body weight loss ([4]; administration halted for the entire group): exceeded 10%; IC50 (hERG): 5100 nM |
| CN1CCCN(c2ccc3c(=O)c(C(=O)NCc4ncc(C(=O)N(C)C)cn4)c4sc5ccccc5n4c3n2)CC1 [Compound H-15] |  |  | IC50 (hERG): > 30000 nM |
| CCc1cnc(CNC(=O)c2c(=O)c3ccc(N4CCCN(C)CC4)nc3n3c2sc2ccccc23)nc1 [Compound H-21] |  | 66.8 |  |
| CCc1ccnc(CNC(=O)c2c(=O)c3ccc(N4CCCN(C)CC4)nc3n3c2sc2ccccc23)n1 [Compound H-22] | 36.7 | 40.6 |  |
| CNc1cnc(CNC(=O)c2c(=O)c3ccc(N4CCCN(C)CC4)nc3n3c2sc2ccccc23)nc1 [Compound H-19] | 30.3 |  |  |
| CN1CCCN(c2ccc3c(=O)c(C(=O)NCc4ncc(C#N)cn4)c4sc5ccccc5n4c3n2)CC1 [Compound H-11] | 16.2 |  |  |
| Nc1nc(O)c2ncn(COC(CO)CO)c2n1 [Ganciclovir, reference compound] |  |  | EC50 [3]: 1600 nM; SI (CC50/EC50) [3]: >60.7 |
